Results from ChEMBL document CHEMBL3525998, “Metabolism of saikosaponin a in rats: diverse oxidations on the aglycone moiety in liver and intestine in addition to hydrolysis of glycosidic bonds” (Drug Metab Dispos, 2013).

Key:
Assay type in all cases: ADME, organism-based
Conditions in all cases: in vivo; call rule not given here
Plasma [1] = test: Drug uptake in Sprague-Dawley rat plasma at 50 mg/kg, po administered through gavage by LC-DAD-IT-TOF-MS analysis; set-up: dose 50 mg/kg, route oral
[2] = Drug excretion in Sprague-Dawley rat bile at 50 mg/kg, po administered through gavage by LC-DAD-IT-TOF-MS analysis; set-up: dose 50 mg/kg, route oral
[3] = Drug excretion in Sprague-Dawley rat urine at 50 mg/kg, po administered through gavage by LC-DAD-IT-TOF-MS analysis; set-up: dose 50 mg/kg, route oral
Plasma [4] = test: Drug metabolism in Sprague-Dawley rat plasma assessed as metabolite delta1-saikogenin f formation at 15 mg/kg, iv by LC-DAD-IT-TOF-MS analysis; set-up: dose 15 mg/kg, route intravenous
[5] = Drug excretion in Sprague-Dawley rat bile assessed as metabolite delta1-saikogenin f level at 15 mg/kg, iv by LC-DAD-IT-TOF-MS analysis; set-up: dose 15 mg/kg, route intravenous
[6] = Drug excretion in Sprague-Dawley rat feces assessed as metabolite delta1-saikogenin f level at 15 mg/kg, iv by LC-DAD-IT-TOF-MS analysis; set-up: dose 15 mg/kg, route intravenous
Plasma [7] = test: Drug metabolism in Sprague-Dawley rat plasma assessed as metabolite saikogenin f-27-oic acid formation at 15 mg/kg, iv by LC-DAD-IT-TOF-MS analysis; set-up: dose 15 mg/kg, route intravenous
[8] = Drug excretion in Sprague-Dawley rat bile assessed as metabolite saikogenin f-27-oic acid level at 15 mg/kg, iv by LC-DAD-IT-TOF-MS analysis; set-up: dose 15 mg/kg, route intravenous
[9] = Drug excretion in Sprague-Dawley rat urine assessed as metabolite saikogenin f-27-oic acid level at 15 mg/kg, iv by LC-DAD-IT-TOF-MS analysis; set-up: dose 15 mg/kg, route intravenous
[10] = Drug excretion in Sprague-Dawley rat feces assessed as metabolite saikogenin f-27-oic acid level at 15 mg/kg, iv by LC-DAD-IT-TOF-MS analysis; set-up: dose 15 mg/kg, route intravenous
[11] = Drug excretion in Sprague-Dawley rat feces at 50 mg/kg, po administered through gavage by LC-DAD-IT-TOF-MS analysis; set-up: dose 50 mg/kg, route oral
Plasma [12] = test: Drug metabolism in Sprague-Dawley rat plasma assessed as metabolite hydroxysaikosaponin a formation at 50 mg/kg, po administered through gavage by LC-DAD-IT-TOF-MS analysis; set-up: dose 50 mg/kg, route oral
[13] = Drug excretion in Sprague-Dawley rat bile assessed as metabolite hydroxysaikosaponin a level at 50 mg/kg, po administered through gavage by LC-DAD-IT-TOF-MS analysis; set-up: dose 50 mg/kg, route oral
[14] = Drug excretion in Sprague-Dawley rat urine assessed as metabolite hydroxysaikosaponin a level at 50 mg/kg, po administered through gavage by LC-DAD-IT-TOF-MS analysis; set-up: dose 50 mg/kg, route oral
[15] = Drug excretion in Sprague-Dawley rat feces assessed as metabolite hydroxysaikosaponin a level at 50 mg/kg, po administered through gavage by LC-DAD-IT-TOF-MS analysis; set-up: dose 50 mg/kg, route oral
Plasma [16] = test: Drug metabolism in Sprague-Dawley rat plasma assessed as metabolite prosaikogenin f formation at 50 mg/kg, po administered through gavage by LC-DAD-IT-TOF-MS analysis; set-up: dose 50 mg/kg, route oral
[17] = Drug excretion in Sprague-Dawley rat bile assessed as metabolite prosaikogenin f level at 50 mg/kg, po administered through gavage by LC-DAD-IT-TOF-MS analysis; set-up: dose 50 mg/kg, route oral
[18] = Drug excretion in Sprague-Dawley rat feces assessed as metabolite prosaikogenin f level at 50 mg/kg, po administered through gavage by LC-DAD-IT-TOF-MS analysis; set-up: dose 50 mg/kg, route oral
Plasma [19] = test: Drug metabolism in Sprague-Dawley rat plasma assessed as metabolite saikogenin f formation at 50 mg/kg, po administered through gavage by LC-DAD-IT-TOF-MS analysis; set-up: dose 50 mg/kg, route oral
[20] = Drug excretion in Sprague-Dawley rat bile assessed as metabolite saikogenin f level at 50 mg/kg, po administered through gavage by LC-DAD-IT-TOF-MS analysis; set-up: dose 50 mg/kg, route oral
[21] = Drug excretion in Sprague-Dawley rat feces assessed as metabolite saikogenin f level at 50 mg/kg, po administered through gavage by LC-DAD-IT-TOF-MS analysis; set-up: dose 50 mg/kg, route oral
[22] = Drug excretion in Sprague-Dawley rat urine assessed as metabolite 3-keto-saikogenin f level at 50 mg/kg, po administered through gavage by LC-DAD-IT-TOF-MS analysis; set-up: dose 50 mg/kg, route oral
[23] = Drug excretion in Sprague-Dawley rat feces assessed as metabolite 3-keto-saikogenin f level at 50 mg/kg, po administered through gavage by LC-DAD-IT-TOF-MS analysis; set-up: dose 50 mg/kg, route oral
Plasma [24] = test: Drug metabolism in Sprague-Dawley rat plasma assessed as metabolite delta1-saikogenin f formation at 50 mg/kg, po administered through gavage by LC-DAD-IT-TOF-MS analysis; set-up: dose 50 mg/kg, route oral
[25] = Drug excretion in Sprague-Dawley rat urine assessed as metabolite delta1-saikogenin f level at 50 mg/kg, po administered through gavage by LC-DAD-IT-TOF-MS analysis; set-up: dose 50 mg/kg, route oral
[26] = Drug excretion in Sprague-Dawley rat urine assessed as metabolite saikogenin f-27-oic acid level at 50 mg/kg, po administered through gavage by LC-DAD-IT-TOF-MS analysis; set-up: dose 50 mg/kg, route oral
Plasma [27] = test: Drug uptake in Sprague-Dawley rat plasma at 15 mg/kg, iv by LC-DAD-IT-TOF-MS analysis; set-up: dose 15 mg/kg, route intravenous
[28] = Drug excretion in Sprague-Dawley rat feces at 15 mg/kg, iv by LC-DAD-IT-TOF-MS analysis; set-up: dose 15 mg/kg, route intravenous
Plasma [29] = test: Drug metabolism in Sprague-Dawley rat plasma assessed as metabolite hydroxysaikosaponin a formation at 15 mg/kg, iv by LC-DAD-IT-TOF-MS analysis; set-up: dose 15 mg/kg, route intravenous
[30] = Drug excretion in Sprague-Dawley rat feces assessed as metabolite hydroxysaikosaponin a level at 15 mg/kg, iv by LC-DAD-IT-TOF-MS analysis; set-up: dose 15 mg/kg, route intravenous
[31] = Drug excretion in Sprague-Dawley rat urine assessed as metabolite prosaikogenin f level at 15 mg/kg, iv by LC-DAD-IT-TOF-MS analysis; set-up: dose 15 mg/kg, route intravenous
[32] = Drug excretion in Sprague-Dawley rat feces assessed as metabolite prosaikogenin f level at 15 mg/kg, iv by LC-DAD-IT-TOF-MS analysis; set-up: dose 15 mg/kg, route intravenous
Plasma [33] = test: Drug metabolism in Sprague-Dawley rat plasma assessed as metabolite saikogenin f formation at 15 mg/kg, iv by LC-DAD-IT-TOF-MS analysis; set-up: dose 15 mg/kg, route intravenous
[34] = Drug excretion in Sprague-Dawley rat urine assessed as metabolite saikogenin f level at 15 mg/kg, iv by LC-DAD-IT-TOF-MS analysis; set-up: dose 15 mg/kg, route intravenous
[35] = Drug excretion in Sprague-Dawley rat feces assessed as metabolite saikogenin f level at 15 mg/kg, iv by LC-DAD-IT-TOF-MS analysis; set-up: dose 15 mg/kg, route intravenous
Plasma [36] = test: Drug metabolism in Sprague-Dawley rat plasma assessed as metabolite 3-keto-saikogenin f formation at 15 mg/kg, iv by LC-DAD-IT-TOF-MS analysis; set-up: dose 15 mg/kg, route intravenous
[37] = Drug excretion in Sprague-Dawley rat bile assessed as metabolite 3-keto-saikogenin f level at 15 mg/kg, iv by LC-DAD-IT-TOF-MS analysis; set-up: dose 15 mg/kg, route intravenous
[38] = Drug excretion in Sprague-Dawley rat urine assessed as metabolite 3-keto-saikogenin f level at 15 mg/kg, iv by LC-DAD-IT-TOF-MS analysis; set-up: dose 15 mg/kg, route intravenous

## C[C@H]1O[C@@H](O[C@H]2CC[C@@]3(C)[C@@H](CC[C@]4(C)[C@@H]3C=C[C@]35OC[C@@]6(CCC(C)(C)C[C@H]63)[C@@H](O)C[C@]54C)[C@]2(C)CO)[C@H](O)[C@@H](O[C@@H]2O[C@H](CO)[C@@H](O)[C@H](O)[C@H]2O)[C@H]1O [SAIKOSAPONIN A]
Plasma [1]
  Drug uptake: Active
[2]
  Drug excretion: metabolite_detected
[3]
  Drug excretion: metabolite_detected
Plasma [4]
  Drug metabolism: metabolite_not_detected
[5]
  Drug excretion: metabolite_not_detected
[6]
  Drug excretion: metabolite_not_detected
Plasma [7]
  Drug metabolism: metabolite_not_detected
[8]
  Drug excretion: metabolite_not_detected
[9]
  Drug excretion: metabolite_not_detected
[10]
  Drug excretion: metabolite_detected
[11]
  Drug excretion: metabolite_detected
Plasma [12]
  Drug metabolism: metabolite_not_detected
[13]
  Drug excretion: metabolite_not_detected
[14]
  Drug excretion: metabolite_not_detected
[15]
  Drug excretion: metabolite_not_detected
Plasma [16]
  Drug metabolism: metabolite_detected
[17]
  Drug excretion: metabolite_detected
[18]
  Drug excretion: metabolite_detected
Plasma [19]
  Drug metabolism: metabolite_not_detected
[20]
  Drug excretion: metabolite_not_detected
[21]
  Drug excretion: metabolite_detected
[22]
  Drug excretion: metabolite_detected
[23]
  Drug excretion: metabolite_detected
Plasma [24]
  Drug metabolism: metabolite_not_detected
[25]
  Drug excretion: metabolite_detected
[26]
  Drug excretion: metabolite_detected
Plasma [27]
  Drug uptake: Active
[28]
  Drug excretion: metabolite_not_detected
Plasma [29]
  Drug metabolism: metabolite_not_detected
[30]
  Drug excretion: metabolite_not_detected
[31]
  Drug excretion: metabolite_detected
[32]
  Drug excretion: metabolite_detected
Plasma [33]
  Drug metabolism: metabolite_not_detected
[34]
  Drug excretion: metabolite_not_detected
[35]
  Drug excretion: metabolite_detected
Plasma [36]
  Drug metabolism: metabolite_not_detected
[37]
  Drug excretion: metabolite_not_detected
[38]
  Drug excretion: metabolite_not_detected
